Measurements reported in ChEMBL document CHEMBL2094269, “WEHI/Eskitis Trypanosoma b. brucei screening data”.

test system: Trypanosoma brucei brucei; experiment: microbe, parasite or virus in culture; type: functional, organism-based, STIB 795; details: Trypanosoma brucei, STIB 795
Description: DNDI: Inhibition of Human African Trypanosomiasis (HAT), STIB 795, in vitro

IC50, > 10.4 µM:
CCN(CC)CCn1c2ccccc2c2nc3ccccc3nc21
Oc1ccc(CN2CCC(Cc3ccccc3)CC2)c2cccnc12
O=C(CC(SCCO)c1ccc2c(c1)OCO2)c1cccs1 (configuration not stated)
Brc1ccc(C2Nc3cccc4cccc(c34)N2)o1
Cn1c(SC2=CS(=O)(=O)c3ccccc32)nc2ccccc21
COc1cc(C(=O)O/N=C(\N)c2ccncc2)cc(OC)c1OC
CCOC(=O)C(=Cc1ccc(Br)cc1)C(=O)OCC
C=CCc1c(C)nc(SC)nc1Nc1ccc(C(C)=O)cc1
CCOC(=O)c1c(N)sc2c(OCC)c(Br)ccc12
COc1cc(NS(=O)(=O)c2ccc(C)cc2)c2ncccc2c1
N=C(Cc1cccc2ccccc12)NOC(=O)c1cccs1
COC(=O)c1sc(=S)n(-c2cc(F)ccc2F)c1N
N=C(NOC(=O)c1ccoc1)c1ccc(Br)cc1
N=C(NOC(=O)c1cccc(Br)c1)c1ccncc1
N=C(NOC(=O)c1ccc(Cl)c(Cl)c1)c1ccccn1
CCOc1ccc2c(C)nc(NC3=NC(C)=CC(C)(C)N3)nc2c1
COc1nc(Nc2nc(O)c3ccccc3n2)nc2ccc(C)cc12
CC(C)N1C/C(=C/c2ccsc2)C(=O)/C(=C/c2ccsc2)C1
COc1cc2c(cc1Cl)/C(=C\CCN(C)C)c1ccccc1S2
CC(=O)c1cccc(Nc2cc(C)nc3c(C)cc(C)cc23)c1
CN(C)CCOC1c2ccccc2CCc2ccc3ccccc3c21 (configuration not stated)
Nc1nc(Nc2ccccc2)sc1C(=O)c1c[nH]c2ccccc12
CCOc1ccc(C(=O)N/N=C(\c2ccccc2)c2ccccn2)cc1
c1ccc(/C(=N\Nc2nc3ccccc3s2)c2ccccn2)cc1
COc1ccc(O)c(/C=N/NC(=O)c2cccc3ccccc23)c1
CCCN(CCC)CC(O)COc1ccc2ccccc2c1 (configuration not stated)
O=C1C(=O)/C(=C/c2ccccc2)CCC/C1=C/c1ccccc1
COC(=O)C1=C(C)NC(=O)/C1=C\c1cccc(OC)c1OC
NCC(OCc1ccc(-c2ccccc2)cc1)c1ccccc1 (configuration not stated)
Clc1ccc(Sc2ccc(/C=N/n3cnnc3)o2)cc1
Oc1ccccc1/C=N/Nc1nc2ccccc2n2nnnc12
Cc1cc(C)c2nc(C)cc(Nc3ccc(N(C)C)cc3)c2c1
O=C(Nc1ccnc(Cl)c1)NC12CC3CC(CC(C3)C1)C2
COc1ccc2c(C)c/c(=N/N=C\c3ccccc3O)[nH]c2c1
COc1nc(Nc2ccc(Cl)cc2)nc(NC(C)(C)C)n1
O=C1C(=O)c2c(C(=O)c3cccs3)coc2-c2ccccc21
CCOC(=O)Cc1csc(NC(=O)c2ccccc2F)n1
Cc1cc(C(=O)N/N=C/c2c(O)ccc3ccccc23)c(C)o1
Cc1ccn(CC(=O)N/N=C/c2c(O)ccc3ccccc23)n1
C(=N\n1cnnc1)/c1cccc(OCCOc2ccccc2)c1
CCOC(=O)c1sc(=S)n(-c2ccccc2CC)c1N
O=C(N/N=C/c1ccc(O)c2ncccc12)c1ccc(F)cc1
N#Cc1ccc(-c2csc(NNC(=O)c3ccco3)n2)cc1
c1ccc(-c2nnc(-c3ccccn3)nc2-c2ccccc2)cc1
C=CC1=Nc2ccccc2C(c2ccccc2)(c2ccccc2)N1
O=C(CN1C2=NCCN2c2ccccc21)c1ccc(Cl)cc1
COc1cc(/C=C/c2cc(C(F)(F)F)nc(=O)[nH]2)ccc1O
COC(=O)c1ccccc1N/N=N/c1nc2ccccc2s1
CCN(CC)c1ccc(/C=N\NC(=O)c2ccccn2)c(O)c1
O=C1C=C(N2CCCCC2c2cccnc2)C2(CCCCC2)O1 (configuration not stated)
COCCN1CSC(=S)N(Cc2ccc(OC)cc2)C1
CN(C)CCCC1(C)Oc2ccccc2Sc2ccccc21 (configuration not stated)
CSc1cccc(C(=O)Nc2cc(F)c(F)cc2Cl)c1
N#CC(c1ccc(Cl)cc1Cl)c1cnnc2ccccc12 (configuration not stated)
COc1ccc(-c2cc(-c3c(O)ccc4ccccc34)n[nH]2)cc1
C1CCC(Nc2nc3nonc3nc2NC2CCCCC2)CC1
Oc1ccc(/N=N/c2ccccc2C(F)(F)F)c2cccnc12
CC(C)(C)c1ccc(CCC2OCC(CN3CCCC3)O2)cc1 (configuration not stated)
COc1ccc(/C(N)=N/OC(=O)c2ccccc2F)cc1OC
CCOc1ccc(C(=O)CC(c2ccccc2)C(C#N)C#N)cc1 (configuration not stated)
Cc1ccc2cc3c(nc2c1)-c1ccccc1/C3=N/NC(N)=S
N#Cc1nc2c(c(N3CCNCC3)c1-c1ccccc1)CCCC2
